The text below walks through data of patent publication US12371428B2 (Exelixis, Inc., priority 2019, dated 2025).

Like-named read-outs stand apart in the source and are kept apart here. A value given as a limit tells only on which side of the number the result lay.

For experiment [1], the target named is Mer (phospho-Mer, MERTK-transfected 293A cells) (Homo sapiens (Human), UniProt Q12866). As to the kind of experiment: Mer autophosphorylation ELISA in transient transfected 293A cells (Example H). Particulars: cellular activity; Mer autophosphorylation ELISA in transient transfected 293A cells. Type of experiment: cell-based. An outline of the steps:
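Inhibition of cellular Mer autophosphorylation is determined in 293A cells transiently expressing human MERTK after 1 h compound exposure (8 concentrations, serum-free, 0.3% DMSO). Phospho-Mer in clarified lysates is measured by ELISA, with DMSO and reference-inhibitor wells defining the 100% and 0% activity limits.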
For orientation: An ELISA detects its analyte on a solid surface through an enzyme-linked reagent.

In experiment [2] the target is KDR (phospho-KDR, VEGF165-stimulated HUVEC cells) (Homo sapiens (Human), UniProt P35968). Nature of the experiment: KDR autophosphorylation ELISA in HUVEC cells (Example G). It is filed as cell-based. Particulars: cellular activity; KDR autophosphorylation ELISA in HUVEC cells. An outline of the steps:
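HUVEC cells, serum-starved 24 h, were treated 1 h with an 8-point compound dilution (0.3% DMSO) and then stimulated with 100 ng/mL VEGF165 for 5 min. Phospho-KDR in lysates was quantified by sandwich ELISA against a phospho-KDR standard. IC50 from a 4-parameter logistic fit, normalised between stimulated DMSO and unstimulated controls.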

Experiment [3] deals with Human MET (residues 956-1390) (Homo sapiens (Human), UniProt P08581). Nature of the experiment: Human Met kinase assay, HTRF KinEase (Example D-2). Particulars: read-out: c-Met IC50. Type of experiment: biochemical. An outline of the steps:
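IC50 values come from a 4-parameter logistic fit of the […] fluorescence ratio, set between DMSO (100%) and reference compound at 1 μM (0%). Reactions held MET 956-1390 at 0.1 ng/well, ATP at Km, biotinylated peptide, 5 mM MgCl2, 1 mM MnCl2, 1 mM DTT and 3% DMSO, and ran 40 min at room temperature before streptavidin-XL665/Eu-antibody detection.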
On the technique in general: In TR-FRET formats the signal depends on donor and acceptor labels being close together.

Experiment [4] has as its target Human MER (residues 528-999) (Homo sapiens (Human), UniProt Q12866). As to the kind of experiment: Human Mer kinase assay, HTRF KinEase (Example C-2). Type of experiment: biochemical. An outline of the steps: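 IC50 values from 10 concentrations via 4-parameter logistic fit of […], with DMSO as 100% and 1 μM reference compound as 0% activity. Reaction: MER kinase domain 528-999, 1 ng/well, 40 μM ATP (Km), biotin peptide, 5 mM MgCl2, 1 mM DTT, 3% DMSO, room temperature 60 min; HTRF streptavidin-XL665/Eu-antibody detection.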

Setting [5] is: protocol of Example D-2 (other compounds).
Where [6] appears, read: protocol of Example C-2 (other compounds).

Sequence of KDR (phospho-KDR, VEGF165-stimulated HUVEC cells) (P35968 20-1356): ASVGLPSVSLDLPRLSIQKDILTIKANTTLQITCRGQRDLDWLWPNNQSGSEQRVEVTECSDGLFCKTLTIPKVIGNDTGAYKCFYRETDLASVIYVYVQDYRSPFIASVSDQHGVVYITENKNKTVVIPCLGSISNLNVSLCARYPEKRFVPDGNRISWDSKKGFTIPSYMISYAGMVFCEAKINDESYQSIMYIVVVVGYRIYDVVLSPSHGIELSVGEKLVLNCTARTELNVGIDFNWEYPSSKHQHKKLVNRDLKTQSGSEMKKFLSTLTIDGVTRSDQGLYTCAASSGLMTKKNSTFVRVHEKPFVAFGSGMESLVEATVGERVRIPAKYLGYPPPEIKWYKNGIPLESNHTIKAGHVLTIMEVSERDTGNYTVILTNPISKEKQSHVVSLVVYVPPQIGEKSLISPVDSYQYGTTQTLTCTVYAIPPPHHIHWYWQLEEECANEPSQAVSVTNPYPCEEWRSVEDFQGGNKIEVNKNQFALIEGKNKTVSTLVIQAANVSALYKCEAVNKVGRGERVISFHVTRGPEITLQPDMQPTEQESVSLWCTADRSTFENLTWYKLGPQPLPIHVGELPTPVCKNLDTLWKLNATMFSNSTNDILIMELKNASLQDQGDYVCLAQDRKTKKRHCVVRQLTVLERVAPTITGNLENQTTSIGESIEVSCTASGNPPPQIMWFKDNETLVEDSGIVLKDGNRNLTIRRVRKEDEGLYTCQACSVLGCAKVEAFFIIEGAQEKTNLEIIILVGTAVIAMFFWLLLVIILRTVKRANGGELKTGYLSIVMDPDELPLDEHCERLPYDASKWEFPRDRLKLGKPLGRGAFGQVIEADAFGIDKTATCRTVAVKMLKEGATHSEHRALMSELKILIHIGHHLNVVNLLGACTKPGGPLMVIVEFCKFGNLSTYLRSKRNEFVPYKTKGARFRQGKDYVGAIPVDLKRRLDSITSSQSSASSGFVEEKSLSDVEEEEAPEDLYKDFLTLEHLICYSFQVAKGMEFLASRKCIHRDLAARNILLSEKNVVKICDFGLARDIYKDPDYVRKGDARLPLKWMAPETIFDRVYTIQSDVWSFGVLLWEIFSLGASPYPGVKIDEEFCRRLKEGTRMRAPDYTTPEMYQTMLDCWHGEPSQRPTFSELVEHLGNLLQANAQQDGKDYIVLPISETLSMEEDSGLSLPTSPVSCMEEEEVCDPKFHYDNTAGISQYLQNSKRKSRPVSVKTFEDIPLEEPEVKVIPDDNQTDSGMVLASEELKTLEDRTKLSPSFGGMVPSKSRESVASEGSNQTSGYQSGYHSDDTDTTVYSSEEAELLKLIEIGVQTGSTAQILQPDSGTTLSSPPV
Sequence of Human MET (residues 956-1390) (P08581 956-1390): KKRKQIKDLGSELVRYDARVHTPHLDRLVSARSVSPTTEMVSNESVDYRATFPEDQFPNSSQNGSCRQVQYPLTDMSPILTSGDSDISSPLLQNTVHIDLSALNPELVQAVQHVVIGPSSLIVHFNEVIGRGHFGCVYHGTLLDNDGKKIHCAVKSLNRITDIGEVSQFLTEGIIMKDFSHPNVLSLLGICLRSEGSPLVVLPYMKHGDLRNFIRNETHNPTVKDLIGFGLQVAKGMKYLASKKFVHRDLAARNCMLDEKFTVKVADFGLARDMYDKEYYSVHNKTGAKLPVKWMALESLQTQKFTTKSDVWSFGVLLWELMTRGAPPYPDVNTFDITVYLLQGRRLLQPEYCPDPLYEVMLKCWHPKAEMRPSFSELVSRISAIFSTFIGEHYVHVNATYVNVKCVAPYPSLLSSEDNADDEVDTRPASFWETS
Sequence of Mer (phospho-Mer, MERTK-transfected 293A cells) (Q12866 21-999): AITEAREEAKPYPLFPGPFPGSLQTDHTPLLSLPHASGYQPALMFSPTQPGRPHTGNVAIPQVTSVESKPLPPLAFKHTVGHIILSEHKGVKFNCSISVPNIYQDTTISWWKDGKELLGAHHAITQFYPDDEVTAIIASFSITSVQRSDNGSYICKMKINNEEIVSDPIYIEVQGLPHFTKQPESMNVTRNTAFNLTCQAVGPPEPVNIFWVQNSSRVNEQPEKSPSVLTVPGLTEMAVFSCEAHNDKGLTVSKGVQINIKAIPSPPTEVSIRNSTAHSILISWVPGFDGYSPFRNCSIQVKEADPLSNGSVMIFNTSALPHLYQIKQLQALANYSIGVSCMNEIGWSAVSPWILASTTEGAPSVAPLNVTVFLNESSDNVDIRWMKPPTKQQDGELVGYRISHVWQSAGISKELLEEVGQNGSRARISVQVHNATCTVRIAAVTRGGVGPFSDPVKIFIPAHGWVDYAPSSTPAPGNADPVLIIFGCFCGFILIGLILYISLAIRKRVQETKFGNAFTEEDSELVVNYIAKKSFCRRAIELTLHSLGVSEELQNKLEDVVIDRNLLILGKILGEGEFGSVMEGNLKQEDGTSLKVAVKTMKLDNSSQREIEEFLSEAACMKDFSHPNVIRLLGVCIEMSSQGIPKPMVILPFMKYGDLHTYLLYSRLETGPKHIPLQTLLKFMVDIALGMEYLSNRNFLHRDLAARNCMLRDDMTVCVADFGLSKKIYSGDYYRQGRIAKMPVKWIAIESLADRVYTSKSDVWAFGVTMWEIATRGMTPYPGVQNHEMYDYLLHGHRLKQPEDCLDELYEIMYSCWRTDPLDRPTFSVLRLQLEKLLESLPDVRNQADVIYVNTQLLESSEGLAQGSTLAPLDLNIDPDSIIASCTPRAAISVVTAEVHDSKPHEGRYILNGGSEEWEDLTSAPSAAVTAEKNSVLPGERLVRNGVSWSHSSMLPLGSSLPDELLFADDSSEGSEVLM
Sequence of Human MER (residues 528-999) (Q12866 528-999): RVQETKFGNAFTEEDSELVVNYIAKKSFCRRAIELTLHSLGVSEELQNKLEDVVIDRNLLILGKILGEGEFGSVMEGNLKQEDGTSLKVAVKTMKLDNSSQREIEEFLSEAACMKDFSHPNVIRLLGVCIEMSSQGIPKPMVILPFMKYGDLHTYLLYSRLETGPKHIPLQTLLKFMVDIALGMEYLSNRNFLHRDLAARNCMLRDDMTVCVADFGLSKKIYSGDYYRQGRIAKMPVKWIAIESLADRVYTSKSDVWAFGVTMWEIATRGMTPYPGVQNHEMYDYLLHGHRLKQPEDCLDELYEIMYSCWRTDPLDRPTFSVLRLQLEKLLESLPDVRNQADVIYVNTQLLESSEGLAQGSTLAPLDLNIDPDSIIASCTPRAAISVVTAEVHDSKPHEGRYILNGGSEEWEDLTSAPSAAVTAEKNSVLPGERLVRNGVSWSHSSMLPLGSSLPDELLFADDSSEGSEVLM

In general, IC50 refers to the concentration needed to halve the response being measured. Take `COc1cc2nccc(Oc3ccc(NC(=O)c4cn(C(C)C)cc(-c5ccc(F)cc5)c4=O)cc3F)c2nc1OC` [Compound 44, N-[4-[(6,7-Dimethoxy-1,5-naphthyridin-4-yl)oxy]-3-fluorophenyl]-5-(4-fluorophenyl)-4-oxo-1-propan-2-ylpyridine-3-carboxamide]: the IC50 is less than 100 nM in experiment [1] and 100 to 300 nM in experiment [2].

For the molecule `COc1cc2nccc(Oc3ccc(NC(=O)c4cn(C)cc(-c5ccc(F)cc5)c4=O)cc3F)c2nc1OC` [Compound 45, N-[4-[(6,7-Dimethoxy-1,5-naphthyridin-4-yl)oxy]-3-fluorophenyl]-5-(4-fluorophenyl)-1-methyl-4-oxopyridine-3-carboxamide], the IC50 in experiment [1] and in experiment [2] was less than 100 nM in each case.

Consider `COc1cc2nccc(Oc3ccc(NC(=O)c4cn(C5CCCC5)cc(-c5ccc(F)cc5)c4=O)cc3F)c2nc1OC` [Compound 46, 1-Cyclopentyl-N-[4-[(6,7-dimethoxy-1,5-naphthyridin-4-yl)oxy]-3-fluorophenyl]-5-(4-fluorophenyl)-4-oxopyridine-3-carboxamide], for which the IC50 in experiment [1] is less than 100 nM; in experiment [2], 100 to 300 nM.

Consider `COc1cc2nccc(Oc3ccc(NC(=O)c4cn(C5COC5)cc(-c5ccc(F)cc5)c4=O)cc3F)c2nc1OC` [Compound 47, N-[4-[(6,7-Dimethoxy-1,5-naphthyridin-4-yl)oxy]-3-fluorophenyl]-5-(4-fluorophenyl)-1-(oxetan-3-yl)-4-oxopyridine-3-carboxamide], for which the IC50 in experiment [1] was less than 100 nM; in experiment [2] it was more than 300 nM.

As to `CNc1ncc(C(=O)Nc2ccc(Oc3ccnc4cc(OC)c(OC)nc34)c(F)c2)c(=O)n1-c1ccc(F)cc1` [Compound 99, N-[4-[(6,7-Dimethoxy-1,5-naphthyridin-4-yl)oxy]-3-fluorophenyl]-1-(4-fluorophenyl)-2-(methylamino)-6-oxopyrimidine-5-carboxamide], the IC50 in experiment [1] and in experiment [2] was less than 100 nM in each case.

`COc1cc2nccc(Oc3ccc(NC(=O)c4c[nH]c(=S)n(-c5ccc(F)cc5)c4=O)cc3F)c2nc1OC` [Compound 104, N-[4-[(6,7-Dimethoxy-1,5-naphthyridin-4-yl)oxy]-3-fluorophenyl]-3-(4-fluorophenyl)-4-oxo-2-sulfanylidene-1H-pyrimidine-5-carboxamide]: the IC50 in experiment [1] and in experiment [2] was less than 100 nM each time.

`COc1cc2nccc(Oc3ccc(NC(=O)c4c(C)nc(C)c(-c5ccc(F)cc5)c4O)cc3F)c2nc1OC` [Compound 154, N-[4-[(6,7-Dimethoxy-1,5-naphthyridin-4-yl)oxy]-3-fluorophenyl]-5-(4-fluorophenyl)-4-hydroxy-2,6-dimethylpyridine-3-carboxamide]: the IC50 in experiment [1], in experiment [2], in experiment [3] (setting [5]) and in experiment [4] (setting [6]) was less than 100 nM each time.

For `COc1cnc2c(Oc3ccc(NC(=O)c4cn(C)c(C)c(-c5ccc(F)cc5C)c4=O)cc3)ccnc2c1` [Compound 187, 5-(4-Fluoro-2-methylphenyl)-N-[4-[(7-methoxy-1,5-naphthyridin-4-yl)oxy]phenyl]-1,6-dimethyl-4-oxopyridine-3-carboxamide], the IC50 in experiment [1] was less than 100 nM; in experiment [2], more than 300 nM; in experiment [3] (setting [5]) it was less than 100 nM; in experiment [4] (setting [6]), less than 100 nM.

As to `COc1cc2nccc(Oc3ccc(NC(=O)c4ccc(C)n(-c5ccc(F)cc5)c4=O)cc3F)c2nc1OC` [Compound 254, N-[4-[(6,7-Dimethoxy-1,5-naphthyridin-4-yl)oxy]-3-fluorophenyl]-1-(4-fluorophenyl)-6-methyl-2-oxopyridine-3-carboxamide], the IC50 in experiment [1], in experiment [2], in experiment [3] (setting [5]) and in experiment [4] (setting [6]) was less than 100 nM each time.

As to `COc1cc2nccc(Oc3ccc(NC(=O)c4cn(CC(F)(F)F)c(C)c(-c5ccc(F)cc5)c4=O)cc3)c2cc1OC` [Compound 260, N-[4-(6,7-Dimethoxyquinolin-4-yl)oxyphenyl]-5-(4-fluorophenyl)-6-methyl-4-oxo-1-(2,2,2-trifluoroethyl)pyridine-3-carboxamide], the IC50 in experiment [1] was less than 100 nM; in experiment [2], more than 300 nM; in experiment [3] (setting [5]), less than 100 nM; in experiment [4] (setting [6]), less than 100 nM.

Take `COCCOc1ccc2nccc(Oc3ccc(NC(=O)c4cnc(C)c(-c5ccc(F)cc5)c4O)cc3F)c2n1` [Compound 348, N-[3-fluoro-4-[[6-(2-methoxyethoxy)-1,5-naphthyridin-4-yl]oxy]phenyl]-5-(4-fluorophenyl)-4-hydroxy-6-methylpyridine-3-carboxamide]: the IC50 in experiment [1], in experiment [2], in experiment [3] (setting [5]) and in experiment [4] (setting [6]) was less than 100 nM in each case.

In the case of `COCCOc1ccc2nccc(Oc3ccc(NC(=O)c4c(C)nc(C)c(-c5ccc(F)cc5)c4O)cc3F)c2n1` [Compound 349, N-[3-fluoro-4-[[6-(2-methoxyethoxy)-1,5-naphthyridin-4-yl]oxy]phenyl]-5-(4-fluorophenyl)-4-hydroxy-2,6-dimethylpyridine-3-carboxamide], the IC50 in experiment [1], in experiment [2], in experiment [3] (setting [5]) and in experiment [4] (setting [6]) was less than 100 nM throughout.

Regarding `COc1cc2ncnc(Oc3ccc(NC(=O)c4c5n(cc(-c6ccc(F)cc6)c4=O)CCC5)cc3F)c2cc1OC` [Compound 406, N-[4-(6,7-dimethoxyquinazolin-4-yl)oxy-3-fluorophenyl]-6-(4-fluorophenyl)-7-oxo-2,3-dihydro-1H-indolizine-8-carboxamide], the IC50 in experiment [1], in experiment [2], in experiment [3] (setting [5]) and in experiment [4] (setting [6]) was less than 100 nM each time.

`C=C(C)c1cnc2c(Oc3ccc(NC(=O)c4cnc(C)c(-c5ccc(F)cc5C)c4O)cc3)ccnc2c1` [Compound 448, 5-(4-fluoro-2-methylphenyl)-4-hydroxy-6-methyl-N-[4-[(7-prop-1-en-2-yl-1,5-naphthyridin-4-yl)oxy]phenyl]pyridine-3-carboxamide]: the IC50 in experiment [1], in experiment [2], in experiment [3] (protocol of Example D-2) and in experiment [4] (protocol of Example C-2) was less than 100 nM in each case.

For the molecule `C=C(C)c1cnc2c(Oc3ccc(NC(=O)c4cnc(C)c(-c5ccc(F)cc5C)c4O)cc3F)ccnc2c1` [Compound 450, 5-(4-fluoro-2-methylphenyl)-N-[3-fluoro-4-[(7-prop-1-en-2-yl-1,5-naphthyridin-4-yl)oxy]phenyl]-4-hydroxy-6-methylpyridine-3-carboxamide], the IC50 in experiment [1], in experiment [2], in experiment [3] (protocol of Example D-2) and in experiment [4] (protocol of Example C-2) was less than 100 nM in each case.

With `C=C(C)c1cnc2c(Oc3ccc(NC(=O)c4c(C)nc(C)c(-c5ccc(F)cc5)c4O)cc3F)ccnc2c1` [Compound 451, 5-(4-fluorophenyl)-N-[3-fluoro-4-[(7-prop-1-en-2-yl-1,5-naphthyridin-4-yl)oxy]phenyl]-4-hydroxy-2,6-dimethylpyridine-3-carboxamide], the half-inhibitory concentration (IC50) in experiment [1], in experiment [2], in experiment [3] (protocol of Example D-2) and in experiment [4] (protocol of Example C-2) was less than 100 nM throughout.

With `C=C(C)c1cnc2c(Oc3ccc(NC(=O)c4cnc(C)c(-c5ccc(F)cc5)c4O)cc3)ccnc2c1` [Compound 454, 5-(4-fluorophenyl)-4-hydroxy-6-methyl-N-[4-[(7-prop-1-en-2-yl-1,5-naphthyridin-4-yl)oxy]phenyl]pyridine-3-carboxamide], the IC50 in experiment [1], in experiment [2], in experiment [3] (protocol of Example D-2) and in experiment [4] (protocol of Example C-2) was less than 100 nM each time.

For the molecule `C=C(C)c1cnc2c(Oc3ccc(NC(=O)c4c(C)nc(C)c(-c5ccc(F)cc5)c4O)cc3)ccnc2c1` [Compound 455, 5-(4-fluorophenyl)-4-hydroxy-2,6-dimethyl-N-[4-[(7-prop-1-en-2-yl-1,5-naphthyridin-4-yl)oxy]phenyl]pyridine-3-carboxamide], the IC50 in experiment [1], in experiment [2], in experiment [3] (protocol of Example D-2) and in experiment [4] (protocol of Example C-2) was less than 100 nM in each case.

Take `C=C(C)c1cnc2c(Oc3ccc(NC(=O)c4cnc(C)c(-c5ccc(F)cc5)c4O)cc3F)ccnc2c1` [Compound 456, 5-(4-fluorophenyl)-N-[3-fluoro-4-[(7-prop-1-en-2-yl-1,5-naphthyridin-4-yl)oxy]phenyl]-4-hydroxy-6-methylpyridine-3-carboxamide]: the IC50 in experiment [1], in experiment [2], in experiment [3] (protocol of Example D-2) and in experiment [4] (protocol of Example C-2) was less than 100 nM each time.
